# Data from paper PMC9958325 (Nature Communications, 2023).
# Where “and” joins values, the source holds several entries; their conditions need not be identical. Identical values can stand only once. Counter-ions that a name gives are not always drawn. Like-named read-outs stand apart in the source and are kept apart here. Marks after values point to notes of the source that are not given here. Peptide text beside a SMILES is read from it. * marks the point of attachment. Cbz = O=C(OCc1ccccc1)*; CH2F = FC*
# Experiments:
# SARS-CoV-2^WK-521 = experiment: microbe, parasite or virus in culture; assay type: cell-based; set-up: EC95, individual assays / EC95, Average: unit: µM
# [1] = Pharmacokinetic study in ICR mice; settings: N = 2 to 3 male or female ICR mice; 5h, TKB125 i.v. 2 mg/kg
# [2] = system: SARS-CoV-2^WK521 in HeLa-ACE2-TMPRSS2 cells; experiment: Antiviral assay, HeLa-ACE2-TMPRSS2 cells, WK521; assay type: cell-based
# in vitro [3] = settings: human, HeLa-ACE2-TMPRSS2 cells
# in vitro [4] = settings: African green monkey, VeroE6 cells
# human cathepsin L = molecular target: T1, human cathepsin L (Homo sapiens, UniProt P07711); experiment: Human cathepsin L inhibitor screening assay; assay type: biochemical; settings: triplicate, listed as Cathepsin L inhibitor/FF-FMK
# T1 construct: purchased abcam ab197012
# T1 sequence (P07711 114-333): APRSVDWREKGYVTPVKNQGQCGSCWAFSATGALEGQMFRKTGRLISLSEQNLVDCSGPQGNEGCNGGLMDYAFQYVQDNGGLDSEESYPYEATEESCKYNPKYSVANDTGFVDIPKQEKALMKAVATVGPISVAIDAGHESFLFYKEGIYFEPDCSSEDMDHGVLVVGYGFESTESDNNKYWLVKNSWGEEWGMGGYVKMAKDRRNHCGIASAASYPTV
# SARS-CoV-2 M^pro/3CL^pro = SARS-CoV-2 M^pro/3CL^pro (Severe acute respiratory syndrome coronavirus 2, UniProt P0DTD1); assay type: biochemical; set-up: IC95, individual assays / IC95, Average: unit: µM
# [5] = mouse, in vivo
# VeroE6 cells = experiment: Intracellular concentrations of compounds (LC/MS), VeroE6 cells; settings: Vero, calculated value per cell count
# HeLa-ACE2-TMPRSS2 cells = experiment: Intracellular concentrations of compounds (LC/MS), HeLa-ACE2-TMPRSS2 cells; settings: for intracellular compound, /1x10^6: calculated value per cell count; for intracellular compound, calculated value /20uL: from AUC against pmol standard curve
# [6] = read-out: EC50, individual assays
# [7] = read-out: SARS-CoV2 RNA VeroE6 cell-based assay EC50
# [8] = Severe acute respiratory syndrome coronavirus 2, Vero C1008, read-out: SARS-CoV2 RNA VeroE6 cell-based assay EC50
# [9] = Severe acute respiratory syndrome coronavirus 2, SARS-CoV-2^WK521, read-out: EC50, HeLa-ACE2-TMPRSS2
# [10] = Severe acute respiratory syndrome coronavirus 2, read-out: EC50, HeLa-AEC2-TMPRSS2, individual assays, source data
# [11] = Severe acute respiratory syndrome coronavirus 2, source data, read-out: EC50, HeLa-AEC2-TMPRSS2, Average
# [12] = read-out: EC50, HeLa-AEC2-TMPRSS2, individual assays, source data
# [13] = FRET, mean ± 1 S.D., read-out: SARS-CoV2 M^pro enzyme assay IC50
# [14] = source data, M^pro enzyme assay
# [15] = source data, M^pro enzyme assay, read-out: IC50, Average
# [16] = Hela ACE2 TMPRSS2, drug 10, duplicates
# [17] = Hela ACE2 TMPRSS2, drug 50, duplicates
# [18] = Hela ACE2 TMPRSS2, drug 100, duplicates
structure (smiles),measurement,setting,value
"COc1cccc2[nH]c(C(=O)N[C@@H](CC(C)C)C(=O)N[C@@H](C[C@@H]3CCNC3=O)C(=O)c3nc4ccccc4s3)cc12 [Compound 5h, reference compound]","EC95, Average",SARS-CoV-2^WK-521,9.4675
same,"EC95, individual assays",SARS-CoV-2^WK-521,9.47 and 9.68 and 9.72 and 9
same,SARS-CoV2 RNA VeroE6 cell-based assay EC95,SARS-CoV-2^WK-521,9470 ± 330 nM
same,EC50,SARS-CoV-2^WK-521; [6],2700 nM and 3200 nM and 2000 nM and 2500 nM
same,EC50,SARS-CoV-2^WK-521; [7],2600 ± 500 nM
same,T1/2,[1],0.27§ h
Cn1cnc(Cn2c(=O)[nH]/c(=N\c3cc4cn(C)nc4cc3Cl)n(Cc3cc(F)c(F)cc3F)c2=O)n1 [Ensitrelvir fumarate],EC50,"SARS-CoV-2^WK-521; Severe acute respiratory syndrome coronavirus 2, Vero C1008, read-out: EC50, Average",106 nM
same,EC50,SARS-CoV-2^WK-521; [8],110 ± 50 nM
same,EC50,SARS-CoV-2^WK-521; [6],45 nM and 127 nM and 156 nM and 98 nM
same,EC50,[2]; [9],200 ± 30 nM
same,EC50,[2]; [10],211 nM
same,EC50,[2]; [11],204 nM
same,EC50,[2]; [12],230 nM and 170 nM
same,CC50 at 3 days,in vitro [3],> 100000 nM
same,CC50 at 3 days,in vitro [4],> 100000 nM
"O=C(NC(Cc1ccccc1)C(=O)NC(Cc1ccccc1)C(=O)CF)OCc1ccccc1 (stereo not drawn) [FF-FMK, reference compound] (Cbz-Phe-Phe-CH2F; configuration not given here)",% inhibition against human Cathepsin,human cathepsin L; 0.00106 µM,39.8315% and 40.7898% and 42.7898%
same,% inhibition against human Cathepsin,human cathepsin L; 0.0053 µM,58.2277% and 58.5989% and 59.5989%
same,% inhibition against human Cathepsin,human cathepsin L; 0.0266 µM,77.0946% and 80.3037% and 81.3037%
same,% inhibition against human Cathepsin,human cathepsin L; 0.6 µM,98.8112% and 98.8499%
same,% inhibition against human Cathepsin,human cathepsin L; 3.3 µM,99.7789% and 99.782%
same,% inhibition against human Cathepsin,human cathepsin L; 16.6 µM,99.9553% and 99.0234% and 100.023%
CC(C)C(=O)OC[C@H]1O[C@@H](n2ccc(NO)nc2=O)[C@H](O)[C@@H]1O [Molnupiravir],EC50,"SARS-CoV-2^WK-521; Severe acute respiratory syndrome coronavirus 2, Vero C1008, read-out: EC50, individual assays",270 nM
same,EC50,SARS-CoV-2^WK-521; [8],350 ± 60 nM
same,EC50,SARS-CoV-2^WK-521; [6],330 nM and 380 nM and 420 nM
same,EC50,[2]; [9],320 ± 70 nM
same,EC50,[2]; [10],270 nM
same,EC50,[2]; [11],323 nM
same,EC50,[2]; [12],300 nM and 400 nM
same,CC50 at 3 days,in vitro [3],> 100000 nM
same,CC50 at 3 days,in vitro [4],> 100000 nM
COc1ccc(F)c2[nH]c(C(=O)N[C@@H](CC(C)C)C(=O)N[C@@H](C[C@@H]3CCNC3=O)C(=O)c3nc4ccccc4s3)cc12 [TKB125],"EC95, Average",SARS-CoV-2^WK-521,8.3875
same,"EC95, individual assays",SARS-CoV-2^WK-521,8.28 and 8.91 and 7.98 and 8.38
same,SARS-CoV2 RNA VeroE6 cell-based assay EC95,SARS-CoV-2^WK-521,8390 ± 390 nM
same,EC50,"SARS-CoV-2^WK-521; read-out: EC50, Average",1820 nM
same,EC50,SARS-CoV-2^WK-521; [6],1700 nM and 1510 nM and 3160 nM and 900 nM
same,EC50,SARS-CoV-2^WK-521; [7],1820 ± 960 nM
same,SARS-CoV2 M^pro enzyme assay IC95,"SARS-CoV-2 M^pro/3CL^pro; FRET, mean ± 1 S.D.",1020 ± 400 nM
same,IC50,SARS-CoV-2 M^pro/3CL^pro; [13],34 ± 6 nM
same,"IC95, Average",SARS-CoV-2 M^pro/3CL^pro; [14],1.022
same,"IC95, individual assays",SARS-CoV-2 M^pro/3CL^pro; [14],0.8844 and 1.476 and 0.7048
same,IC50,SARS-CoV-2 M^pro/3CL^pro; [15],34 nM
same,IC50,"SARS-CoV-2 M^pro/3CL^pro; source data, M^pro enzyme assay, read-out: IC50, individual assays",28.2 nM and 39.6 nM and 34.1 nM
same,T1/2,[1],0.76 § h
COc1ccc(F)c2[nH]c(C(=O)N[C@@H](CC(C)C)C(=O)N[C@@H](C[C@@H]3CCNC3=O)C(=O)c3nc4c(F)cccc4s3)cc12 [TKB198],"EC95, Average",SARS-CoV-2^WK-521,0.834
same,"EC95, individual assays",SARS-CoV-2^WK-521,0.856 and 0.86 and 0.8 and 0.82
same,Improvement of EC50 and EC95 values relative to TKB125,SARS-CoV-2^WK-521,about 10 fold
same,SARS-CoV2 RNA VeroE6 cell-based assay EC95,SARS-CoV-2^WK-521,830 ± 30 nM
same,EC50,"SARS-CoV-2^WK-521; read-out: EC50, Average",272 nM
same,EC50,SARS-CoV-2^WK-521; [6],130 nM and 300 nM and 400 nM and 260 nM
same,EC50,SARS-CoV-2^WK-521; [7],270 ± 110 nM
same,Cmax,[5],85 ng/mL
same,Oral F,[5]; po,1.98§ %
same,SARS-CoV2 M^pro enzyme assay IC95,"SARS-CoV-2 M^pro/3CL^pro; FRET, mean ± 1 S.D.",750 ± 270 nM
same,IC50,SARS-CoV-2 M^pro/3CL^pro; [13],23 ± 13 nM
same,"IC95, Average",SARS-CoV-2 M^pro/3CL^pro; [14],0.7533
same,"IC95, individual assays","SARS-CoV-2 M^pro/3CL^pro; source data, M^pro enzyme assay, listed as TKB0198",1.0700 and 0.6000 and 0.5900
same,IC50,"SARS-CoV-2 M^pro/3CL^pro; source data, M^pro enzyme assay, listed as TKB0198, read-out: IC50, individual assays",36 nM and 10.1 nM
same,IC50,SARS-CoV-2 M^pro/3CL^pro; [15],23 nM
same,T1/2,[1],0.83 § h
CC(C)(C)C(NC(=O)C(F)(F)F)C(=O)N1CC2C(C1C(=O)NC(CC1CCNC1=O)C(=O)c1nc3c(F)cccc3s1)C2(C)C (stereo not shown) [TKB0245A],"intracellular compound, /1x10^6","VeroE6 cells; drug 10, duplicates",0.09213 /1x10^6 and 0.09745 /1x10^6
same,"intracellular compound, /1x10^6","VeroE6 cells; drug 100, duplicates",0.9321 /1x10^6 and 0.7861 /1x10^6
same,"intracellular compound, pmol(total)",HeLa-ACE2-TMPRSS2 cells; [16],0.636 pmol and 0.5701 pmol
same,"intracellular compound, /1x10^6",HeLa-ACE2-TMPRSS2 cells; [16],0.2544 /1x10^6 and 0.228 /1x10^6
same,"intracellular compound, calculated value /20uL",HeLa-ACE2-TMPRSS2 cells; [16],0.59 /20uL and 0.50 /20uL
same,"intracellular compound, pmol(total)",HeLa-ACE2-TMPRSS2 cells; [17],4.585 pmol and 3.749 pmol
same,"intracellular compound, /1x10^6",HeLa-ACE2-TMPRSS2 cells; [17],1.834 /1x10^6 and 1.4997 /1x10^6
same,"intracellular compound, calculated value /20uL",HeLa-ACE2-TMPRSS2 cells; [17],4.77 /20uL and 3.30 /20uL
same,"intracellular compound, pmol(total)",HeLa-ACE2-TMPRSS2 cells; [18],8.312 pmol and 9.388 pmol
same,"intracellular compound, /1x10^6",HeLa-ACE2-TMPRSS2 cells; [18],3.325 /1x10^6 and 3.755 /1x10^6
same,"intracellular compound, calculated value /20uL",HeLa-ACE2-TMPRSS2 cells; [18],6.65 /20uL and 9.39 /20uL
